This is an account of results in paper PMC5215691 (2017).

The test system of assay [1] is FAM-labeled KBA 3-1 (DNA, aptamer) CGGAAGCGCGCCACCCCATCGGCGGGCGCGAAGCTTGCG
The assay is described as follows: RGO fluorescence quenching/recovery. The conditions noted are these: 1X PBS pH 8.5, room temperature, 100 nM aptamer, 0.1 mg/mL RGO.

For assay [2], the system named is KBA 2 (DNA, aptamer) ATGCGGATCCCGCGCGACCAACGGAAGCGCGCCACCCCATCGGCGGCGCGAAGCTTGCGC
The assay is described as follows: ELONA (biotin-aptamer, streptavidin-HRP). To be noted: for binding: immobilised compound, 1 μM aptamer.

Assay [3] has as its system KBA 3-1 (DNA, aptamer) CGGAAGCGCGCCACCCCATCGGCGGGCGCGAAGCTTGCG
The assay is described as follows: ELONA (biotin-aptamer, streptavidin-HRP). To be noted: for binding: immobilised compound, 1 μM aptamer.

For assay [4], the system named is KBA 2-2 (DNA, aptamer) CGCCACCCCATCGGCGGCG
Briefly: ELONA (biotin-aptamer, streptavidin-HRP). The conditions noted are these: not given; 1X PBS/PBST (concentrations not given); immobilised compound (amide bond on NOS plate); apparent.

Assay [5] concerns KBA 1 (DNA, aptamer) ATGCGGATCCCGCGCCGACGTCAGAGAGGCGCGCTGGTTTGCACCGCGCGAAGCTTGCGC
The assay is described as follows: ELONA (biotin-aptamer, streptavidin-HRP). The conditions noted are these: not given; 1X PBS/PBST (concentrations not given); immobilised compound (amide bond on NOS plate); apparent.

Assay [6] has as its system KBA 1-1 (DNA, aptamer) ATGCGGATCCCGCGCCGACGTCAGAGAGGCGCGCTGGTTTGCAC
Briefly: ELONA (biotin-aptamer, streptavidin-HRP). The conditions noted are these: not given; 1X PBS/PBST (concentrations not given); immobilised compound (amide bond on NOS plate); apparent.

Assay [7] concerns KBA 3-2 (DNA, aptamer) CGCCACCCCATCGGCGGGCG
The assay is described as follows: ELONA (biotin-aptamer, streptavidin-HRP). To be noted: not given; 1X PBS/PBST (concentrations not given); immobilised compound (amide bond on NOS plate); apparent.

The subject of assay [8] is KBA 3 (DNA, aptamer) ATGCGGATCCCGCGCACCAACGGAAGCGCGCCACCCCATCGGCGGGCGCGAAGCTTGCGC
Briefly: ELONA (biotin-aptamer, streptavidin-HRP). To be noted: not given; 1X PBS/PBST (concentrations not given); immobilised compound (amide bond on NOS plate); apparent.

The subject of assay [9] is KBA 2-1 (DNA, aptamer) CGGAAGCGCGCCACCCCATCGGCGGCGCGAAGCTTGCG
Briefly: ELONA (biotin-aptamer, streptavidin-HRP). To be noted: not given; 1X PBS/PBST (concentrations not given); immobilised compound (amide bond on NOS plate); apparent.

Assay [10] has as its system KBA 1-2 (DNA, aptamer) CGCGCCGACGTCAGAGAGGCGCG
The assay is described as follows: ELONA (biotin-aptamer, streptavidin-HRP). To be noted: not given; 1X PBS/PBST (concentrations not given); immobilised compound (amide bond on NOS plate); apparent.

The mark [11] stands for this setting: not given, 1X PBS/PBST (concentrations not given), immobilised compound (amide bond on NOS plate), apparent.

Consider `CC1(C)S[C@@H]2[C@H](NC(=O)[C@H](N)c3ccccc3)C(=O)N2[C@H]1C(=O)O`, for which the values for the binding result in [1] (1 μM ampicillin), in assay [2] and in assay [3] were “no”, “weak” and “weak”, respectively.

Regarding `CN[C@@H]1[C@H](O[C@H]2[C@H](O[C@H]3[C@H](O)[C@@H](O)[C@H](N=C(N)N)[C@@H](O)[C@@H]3N=C(N)N)O[C@@H](C)[C@]2(O)CO)O[C@@H](CO)[C@H](O)[C@H]1O`, the binding result in assay [1] (1 μM antibiotic), in assay [2] and in assay [3] was “weak” in each case.

Consider `NC[C@H]1O[C@H](O[C@H]2[C@H](O)[C@@H](O[C@H]3O[C@H](CO)[C@@H](O)[C@H](N)[C@H]3O)[C@H](N)C[C@@H]2N)[C@H](O)[C@@H](O)[C@@H]1O`, for which the binding result in assay [1] (1 pM to 1 μM kanamycin) is “yes”. The “Kd^app” value in [4] came to 0.564 ± 0.0925 µM; in assay [5], 0.268 ± 0.0208 µM; in assay [6] it was 0.268 ± 0.0267 µM; in [7] it was 0.239 ± 0.0525 µM; in assay [8], 0.341 ± 0.0128 µM; in assay [9], 0.182 ± 0.0572 µM. In addition, the “Kd^app” value in assay [10] was 0.669 ± 0.0107 µM; in [2] (setting [11]) it was 0.0347 ± 0.0356 µM; in assay [3] (setting [11]) it was 0.0923 ± 0.0291 µM.

`CN(C)[C@@H]1C(=O)C(C(N)=O)=C(O)[C@@]2(O)C(=O)C3=C(O)c4c(O)cccc4[C@@](C)(O)[C@H]3C[C@@H]12`: the binding result in assay [1] (1 μM antibiotic), in assay [2] and in [3] was “weak” throughout.

Consider `CN[C@@H]1[C@H](O[C@H]2[C@H](O[C@H]3[C@H](O)[C@@H](O)[C@H](N=C(N)N)[C@@H](O)[C@@H]3N=C(N)N)O[C@@H](C)[C@]2(O)C=O)O[C@@H](CO)[C@H](O)[C@H]1O`, for which the binding entry in assay [1] (1 μM antibiotic), in [2] and in [3] was “weak” each time.
